The values that follow come from article PMC7411605, “Xanthine Oxidase Inhibition and Anti-LDL Oxidation by Prenylated Isoflavones from Flemingia philippinensis Root” (Molecules, 2020).

Where two headings read alike, the source gives them in different places.

Test [1] addresses T1, Bovine milk xanthine oxidase (XO, EC 1.17.3.2) (Bos taurus, UniProt P80457).
T1 construct: Xanthine oxidase from bovine milk (EC 1.17.3.2); purchased Sigma Aldrich Co., (St. Louis, MO, USA); host or cells: bovine milk
The experiment in a line: Xanthine oxidase activity (uric acid formation at 295 nm). Type of test: biochemical. To be noted: sample concentration which leads to 50% xanthine oxidase activity loss; xanthine substrate, pH 7.5, 37 °C; read-out: IC50, xanthine oxidase inhibition (converted). On the procedure: The half-maximal inhibitory concentrations (IC50) were calculated according to the enzyme inhibition rate (%) derived from the change of uric acid formation in comparison with the concentration of inhibitors. The inhibition rate derived from the non-linear regression fitting to Equation (1). Inhibition rate (%) = 100 × [(rate of control reaction − rate of inhibitor reaction)/rate of control reaction](1)

Test [2] has as its target T1, Bovine milk xanthine oxidase (XO, EC 1.17.3.2). Description: Xanthine oxidase inhibition kinetics (Lineweaver–Burk and Dixon plots). Type of test: biochemical. On the procedure: The inhibition mode and inhibitory constants were determined by Lineweaver–Burk and Dixon plots. For obtaining double reciprocal plots, was measured the reaction absorbance of the enzyme, inhibited by different concentrations of inhibitors, with three concentrations of xanthine (15, 30, and 60 μM) at 295 nm and 37 °C. The corresponding kinetic parameters, namely the Michaelis-Menten constant (Km), maximal velocity (Vmax), inhibitory constant (Ki), and dissociation constant of a binding site for the inhibitor to either free enzyme or the enzyme-substrate complex (KI and KIS) were determined by Equations (2)–(4).

Another test concerns the target T2, xanthine oxidase (Bos taurus, UniProt P80457).
T2 construct: Xanthine oxidase from bovine milk (EC 1.17.3.2); purchased Sigma Aldrich Co., (St. Louis, MO, USA); host or cells: bovine milk
The experiment in a line: Fluorescence quenching of xanthine oxidase (binding affinity). Also on record: species or system bovine. On the procedure:
The binding affinity between xanthine oxidase and isolated isoflavones were measured by fluorescence quenching method. For the fluorescence quenching experiments, the Trp intensities of xanthine oxidase were monitored wavelength of emission from 300 to 400 nm and excitation of 290 nm. The reaction mixture containing 180 μL of 200 mM sodium pyrophosphate/HCl (pH 7.5), 10 μL of isolated isoflavones diluted in DMSO (3.125, 6.25, 12.5, 25.0, and 50.0 μM), and 10 μL of 1 unit/mL xanthine oxidase was placed in black/flat bottom 96-well microplates. […] The quenching parameters such as the Stern–Volmer constant (KSV), binding constant (KA), and the number of binding sites (n) were determined by the Equations (5) and (6). F0 − F = 1 + KSV [Q](5) Log [(F0 − F)/F] = log KA + n log [Q]f(6)

Test [3] has as its system human LDL. The experiment in a line: TBARS assay of Cu2+ induced LDL oxidation. Type of test: biochemical. On the procedure: Thiobarbituric acid reactive substances (TBARS) assay was carried out according to the previous method with minor modifications. The absorbance of a product of a reaction between thiobarbituric acid (TBA) and malondialdehyde (MDA) was measured at 540 nm. First, 220 μL of 500 μg/mL LDL in a buffer (10 mM PBS, pH 7.4), 10 μL of […], and 10 μL of different concentrations from 0 to 3 mM of isoflavones or probucol as a positive control were mixed in 1.5 mL Eppendorf tube and incubated at 37 °C for 4 h. After incubation, 100 μL of trichloroacetic acid (TCA) and 100 μL of 0.67% thiobarbituric acid (TBA)/0.05 N NaOH were added to the reaction mixture and heated in the water bath at 100 °C for 15 min. After heating, the mixture was cooled on the ice and centrifuged for 15 min at 3000 rpm. The absorbance of supernatant was measured and the IC50 values were calculated from the inhibition rate derived from Equation (1).

Test [4] deals with human LDL. Description: Conjugated diene formation on Cu2+ induced LDL oxidation. Type of test: biochemical. To be noted: at 10 μM of compound; 234 nm, followed for 180 min. On the procedure:
The formation of conjugated dienes from oxLDL was assessed by the method. The conjugated diene formation occurred in the clear bottom 96-well plate. The mixture of each well containing 230 μL of 550 μg/mL LDL in the buffer (10 mM PBS, pH 7.4) and 10 μL of 250 μM CuSO4 (final concentration: 10 μM) in the presence or absence of isoflavones or probucol as a positive control (final concentration: 10 μM) were incubated at 37 °C for 4 h. Then, the reaction was screened at 234 nm for 180 min every 5 min, continuously, incubating in the SpectraMax M3 multi-mode microplate reader. In the observed absorbance spectra, the lag time of tested samples was obtained as the endpoint indicated in the lag phase.

Test [5] addresses T1, Bovine milk xanthine oxidase (XO, EC 1.17.3.2). The experiment in a line: Xanthine oxidase activity (uric acid formation at 295 nm). Type of test: biochemical. Particulars: initial velocity versus enzyme amount, 0~12.5 μM of compound.

T1 sequence (P80457 whole entry): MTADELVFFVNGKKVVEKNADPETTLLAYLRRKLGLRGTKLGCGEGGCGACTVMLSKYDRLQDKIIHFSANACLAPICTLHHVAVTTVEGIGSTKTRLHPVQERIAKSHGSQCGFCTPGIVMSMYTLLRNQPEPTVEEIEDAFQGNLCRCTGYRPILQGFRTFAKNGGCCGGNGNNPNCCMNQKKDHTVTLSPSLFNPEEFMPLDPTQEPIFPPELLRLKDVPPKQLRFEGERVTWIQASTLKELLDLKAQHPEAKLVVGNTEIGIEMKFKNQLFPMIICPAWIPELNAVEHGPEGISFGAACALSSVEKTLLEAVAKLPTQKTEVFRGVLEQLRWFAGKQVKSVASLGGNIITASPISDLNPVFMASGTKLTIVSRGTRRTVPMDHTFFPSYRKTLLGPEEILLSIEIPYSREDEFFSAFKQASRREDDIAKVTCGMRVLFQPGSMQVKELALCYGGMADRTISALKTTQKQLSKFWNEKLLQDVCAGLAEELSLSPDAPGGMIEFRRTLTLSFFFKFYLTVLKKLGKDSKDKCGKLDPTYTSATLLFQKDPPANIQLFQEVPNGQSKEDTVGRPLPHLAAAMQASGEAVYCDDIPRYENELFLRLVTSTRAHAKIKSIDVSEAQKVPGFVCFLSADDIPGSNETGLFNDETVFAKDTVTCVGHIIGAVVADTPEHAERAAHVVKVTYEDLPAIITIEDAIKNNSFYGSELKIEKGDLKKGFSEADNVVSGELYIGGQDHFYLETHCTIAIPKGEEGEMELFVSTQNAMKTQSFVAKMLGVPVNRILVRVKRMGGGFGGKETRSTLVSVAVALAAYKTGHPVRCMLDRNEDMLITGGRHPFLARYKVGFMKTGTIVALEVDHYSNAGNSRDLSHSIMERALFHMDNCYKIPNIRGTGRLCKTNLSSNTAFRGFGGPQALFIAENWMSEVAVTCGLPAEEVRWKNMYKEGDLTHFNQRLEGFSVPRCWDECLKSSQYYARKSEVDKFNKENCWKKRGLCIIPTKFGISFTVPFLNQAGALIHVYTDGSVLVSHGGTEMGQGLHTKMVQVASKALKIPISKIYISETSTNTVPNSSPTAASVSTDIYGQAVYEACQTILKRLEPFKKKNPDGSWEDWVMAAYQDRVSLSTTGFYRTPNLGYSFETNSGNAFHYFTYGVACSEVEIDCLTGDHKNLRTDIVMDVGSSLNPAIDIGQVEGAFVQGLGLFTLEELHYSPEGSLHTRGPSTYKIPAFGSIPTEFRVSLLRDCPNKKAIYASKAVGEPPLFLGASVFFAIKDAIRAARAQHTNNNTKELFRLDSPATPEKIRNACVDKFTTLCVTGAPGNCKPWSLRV
T2 sequence (P80457 whole entry): as above

As for `CC(C)=CCc1c(O)c(CC=C(C)C)c2occ(-c3ccc(O)c(O)c3)c(=O)c2c1O` [Compound 3, 6,8-diprenylorobol], the IC50 is 7.8 µM in test [1] and 1.9 µM with human LDL [3] (LDL 500 μg/mL, 10 μM Cu2+, 37 °C, 4 h). The inhibitory constant (Ki) in test [2] (Dixon plots, read-out: Ki (inhibition constant)) was 5.5 µM; in test [2] (binding of inhibitor to free enzyme, secondary plot of slope, read-out: KI), 5.7 µM. In test [2] (Lineweaver–Burk plots, xanthine 15, 30, 60 μM), the “Inhibition Mode” value is reported as “Mixed type I”. In addition, the KIS in test [2] (binding of inhibitor to enzyme-substrate complex, secondary plot of intercept) is recorded as 15.5 µM. The “Stern–Volmer constant KSV” value on xanthine oxidase (excitation 290 nm, emission 300-400 nm) stood at 125300 L/mol. The Kd at xanthine oxidase (excitation 290 nm, emission 300-400 nm, read-out: binding constant KA (converted)) is 1.11 µM. For the same compound, the “number of binding sites n” value at xanthine oxidase (fluorescence quenching) is recorded as 1.4392. Also, the “Inhibition Rate” value in the test with human LDL [3] (at 10 μM of compound, oxidized LDL induced by Cu2+) is listed as 98.6%. For the same compound, in the test on human LDL [4], the “Lag Time of conjugated diene formation” value was greater than 180 min. The “Reversibility of XO inhibition” value in test [5] was “reversible”.

For orientation: IC50 means the point on the concentration scale where inhibition reaches its midpoint. For orientation: Ki means a measure of affinity in units of concentration, obtained from inhibition or displacement.
